According to PubChem BioAssay (NCI):
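Step 1: Grow cells in 96-well plates. Step 2: Expose to compound for 48 hours at 5 concentrations. Step 3: Interpolate endpoints linearly; if unreached, use highest concentration. GI50 marks 50% less growth. At the TGI there is no net growth.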

Legend:
Experiment in all cases: DTP human tumour cell line panel, 48 h
MOLT-4 leukemia = system: MOLT-4 leukemia
K-562 leukemia = system: K-562 leukemia
SK-MEL-2 melanoma = system: SK-MEL-2 melanoma
NCI-H522 lung = system: NCI-H522 lung
SK-OV-3 ovarian = system: SK-OV-3 ovarian
SF-268 CNS = system: SF-268 CNS
HCT-15 colon = system: HCT-15 colon
ACHN renal = system: ACHN renal
SF-295 CNS = system: SF-295 CNS
OVCAR-4 ovarian = system: OVCAR-4 ovarian

SMILES	TGI (MOLT-4 leukemia)	TGI (K-562 leukemia)	TGI (SK-MEL-2 melanoma)	TGI (NCI-H522 lung)	TGI (SK-OV-3 ovarian)	TGI (SF-268 CNS)	TGI (HCT-15 colon)	TGI (ACHN renal)	GI50 (MOLT-4 leukemia)	GI50 (K-562 leukemia)	GI50 (SF-295 CNS)	TGI (SF-295 CNS)	GI50 (SK-MEL-2 melanoma)	GI50 (NCI-H522 lung)	GI50 (SK-OV-3 ovarian)	GI50 (OVCAR-4 ovarian)	TGI (OVCAR-4 ovarian)	GI50 (SF-268 CNS)	GI50 (HCT-15 colon)	GI50 (ACHN renal)
O=C(N/N=C1/C(=O)N(c2ccc(Cl)cc2Cl)C(=O)C(=O)C1c1nc2ccccc2o1)c1ccccc1O (configuration not stated)	> 100 µM	> 100 µM	> 100 µM	87.7 µM	> 100 µM	> 100 µM	> 100 µM	> 100 µM	–	–	–	–	–	–	–	–	–	–	–	–
Nc1nccc2c1ccn2-c1ccc(NC(=O)c2ccc(N3CCOCC3)c(C(F)(F)F)c2)cc1	–	> 100 µM	5.49 µM	6.71 µM	23.5 µM	15.1 µM	10.5 µM	16.3 µM	0.318 µM	0.687 µM	0.204 µM	0.515 µM	1.11 µM	1.12 µM	2.44 µM	1.96 µM	24.6 µM	0.879 µM	0.811 µM	0.928 µM
Ic1ccc(-n2nnnc2-c2cnoc2-c2ccccc2)cc1	> 100 µM	> 66.6 µM	> 100 µM	> 100 µM	> 100 µM	> 100 µM	> 73.6 µM	> 100 µM	70 µM	29.2 µM	38.2 µM	> 77.8 µM	> 94 µM	46.3 µM	> 65.4 µM	> 64.2 µM	> 100 µM	54 µM	29.1 µM	> 61.1 µM
Cc1cn2c(/C=C3\C(=O)Nc4ccc(O)cc43)c(-c3ccc(Cl)cc3)nc2s1	27.1 µM	40.9 µM	70.5 µM	57.9 µM	62.7 µM	54.5 µM	> 100 µM	> 100 µM	9.97 µM	10.4 µM	15.2 µM	41.4 µM	21.9 µM	11.3 µM	25.9 µM	7.31 µM	27.8 µM	15.2 µM	21.4 µM	17.8 µM
Cc1nc2cnc(N)c(C#Cc3cncc(C(=O)Nc4ccc(CN5CCN(C)CC5)c(C(F)(F)F)c4)c3)c2nc1C	18.3 µM	8.18 µM	0.817 µM	3.86 µM	9.15 µM	10.3 µM	10.9 µM	5.9 µM	0.859 µM	–	3.02 µM	19.6 µM	0.187 µM	0.276 µM	1.63 µM	0.119 µM	6.17 µM	0.64 µM	0.912 µM	0.564 µM
O=C(NC(=O)c1cn(CCNCCO)c(=O)[nH]c1=O)OCc1ccccc1	> 100 µM	> 100 µM	–	> 100 µM	> 100 µM	> 100 µM	> 100 µM	> 100 µM	–	–	–	> 100 µM	–	–	–	–	> 100 µM	–	–	–
COc1cccc2c1C(=O)c1c(O)c3c(c(O)c1C2=O)CC(O)(/C(C)=N/NC(=O)CCC(=O)N/N=C(\C)C1(O)Cc2c(O)c4c(c(O)c2C(OC2CC(N)C(O)C(C)O2)C1)C(=O)c1c(OC)cccc1C4=O)CC3OC1CC(N)C(O)C(C)O1 (configuration not stated)	–	7.69 µM	0.343 µM	0.327 µM	2.4 µM	8.11 µM	> 50 µM	2.9 µM	0.142 µM	0.341 µM	0.42 µM	6.51 µM	0.111 µM	0.0503 µM	0.475 µM	0.885 µM	> 21.4 µM	0.259 µM	3.51 µM	0.277 µM
C1CSCCSCCS1	> 100 µM	> 100 µM	–	> 100 µM	> 100 µM	> 100 µM	> 100 µM	–	–	–	–	> 100 µM	–	–	–	–	> 100 µM	–	–	–
O=C1NC(=S)NNC12c1ccccc1-c1ccccc12	> 10 µM	> 10 µM	–	–	> 10 µM	> 10 µM	> 10 µM	–	–	–	–	–	–	–	–	–	> 10 µM	–	–	–
c1ccc(SC2CCSc3ccccc3C2Sc2ccccc2)cc1 (configuration not stated)	> 100 µM	> 100 µM	–	> 100 µM	–	> 100 µM	> 100 µM	> 100 µM	–	–	–	> 100 µM	–	–	–	–	> 100 µM	–	–	–
CCOc1ccc2c(c1)[n+]([O-])c(-c1ccccc1Cl)c(N)[n+]2[O-]	> 100 µM	> 100 µM	> 100 µM	33.8 µM	> 100 µM	> 100 µM	–	> 100 µM	–	–	–	> 100 µM	–	–	–	–	> 100 µM	–	–	–
CC1=C2CCCC2=C/C(=N/Nc2ccc([N+](=O)[O-])cc2[N+](=O)[O-])CC1	> 100 µM	> 100 µM	> 100 µM	> 100 µM	> 100 µM	> 100 µM	–	> 100 µM	–	–	–	> 100 µM	–	–	–	–	> 100 µM	–	–	–
N#C/C=C(\c1ccc([N+](=O)[O-])cc1)n1nnc2cc(Cl)c(Cl)cc21	> 100 µM	> 100 µM	6.42 µM	3.57 µM	18.5 µM	33.5 µM	5.36 µM	3.16 µM	2.71 µM	2.39 µM	–	–	2.56 µM	1.72 µM	5.1 µM	1.54 µM	2.89 µM	3.58 µM	1.85 µM	1.63 µM
COc1ccc(/C(=N\NC(=O)C(N)=O)C(c2ccc(OC)cc2)C2(O)C(=O)Nc3c(Cl)cccc32)cc1 (configuration not stated)	> 100 µM	–	> 100 µM	–	–	> 100 µM	–	> 100 µM	–	–	–	> 100 µM	–	–	–	–	> 100 µM	–	–	–
COc1ccc(-c2cc(-c3ccccc3)c(C#N)c(=O)n2C2OC(CO)C(O)C(O)C2O)cc1 (configuration not stated)	> 100 µM	> 100 µM	–	> 100 µM	> 100 µM	> 100 µM	> 100 µM	> 100 µM	–	–	–	> 100 µM	–	–	–	–	> 100 µM	–	–	–
CC(C)=CCc1cc(O)cc2c1OC(C=C(C)C)C1=C2C(=O)C2=C(NCCS2(=O)=O)C1=O (configuration not stated)	7.19 µM	14.6 µM	7.13 µM	7.41 µM	10.4 µM	8.2 µM	6.46 µM	10.6 µM	2.23 µM	3.07 µM	–	–	2.85 µM	2.64 µM	3.8 µM	0.811 µM	3.06 µM	2.34 µM	2.74 µM	3.18 µM
COc1ccc2oc(-c3cccnc3)cc(=O)c2c1	> 100 µM	> 100 µM	> 100 µM	–	–	> 100 µM	–	> 100 µM	–	–	–	> 100 µM	–	–	–	–	> 100 µM	–	–	–
